Reference: patent publication EP0528030B1, “ANTITUMOR BE-13793C DERIVATIVE” (BANYU PHARMACEUTICAL CO., LTD., priority 1990, dated 1991)
Converted amounts (≈) assume the structure as drawn.

Assays:
Type in all cases: cell-based
human lung cancer PC13 = assay: Cancer cell proliferation inhibition (sulforhodamine B staining), PC13; conditions: PC-13, 72 hours culture with test solution, RPMI-160 medium containing 10% fetal bovine serum
Protocol: (§1) A test compound (20 mg) was dissolved in dimethyl sulfoxide (1 ml) and successively diluted into test solutions.
(§2) DMEM medium containing 10% fetal bovine serum was used for a human gastric cancer cell MKN45 and a human colon cancer cell LS180, and […] medium containing 10% fetal bovine serum was used for human lung cancer PC13.
(§3) 100 µl portions of the cell-culturing medium containing 3×10^3 cancer cells were put in a 96-hole microplate, culture was carried out under 5% CO2 at 37°C for 24 hours, 11 µl portions of the above test solution were added, the mixtures were subjected to culture under 5% CO2 at 37°C for further 72 hours, and then the cells were fixated with 50% trichloroacetic acid and stained with 0.4% sulforhodamine B. The dye was extracted from the stained cells with 10 mM Tris solution, and absorbance at 540 nm was measured and compared with that in the control group. […]

[1] = test system: human gastric cancer cell MKN45; assay: Cancer cell proliferation inhibition (sulforhodamine B staining), MKN45; conditions: MKN-45, 72 hours culture with test solution, DMEM medium containing 10% fetal bovine serum
Protocol: as §1, §2, §3

[2] = test system: human colon cancer cell LS180; assay: Cancer cell proliferation inhibition (sulforhodamine B staining), LS180; conditions: 72 hours culture with test solution, DMEM medium containing 10% fetal bovine serum
Protocol: as §1, §2, §3

Compound	IC50 (human lung cancer PC13)	IC50 [1]	IC50 [2]
O=C1NC(=O)c2c1c1c3cccc(O)c3[nH]c1c1[nH]c3c(O)cccc3c21 [BE-13793C, 12,13-dihydro-1,11-dihydroxy-5H-indolo[2,3-a]pyrrolo[3,4-c]-carbazole-5,7(6H)-dione]	12.5 µg/mL (≈ 35 µM)	> 50 µg/mL	> 50 µg/mL
O=C1NC(=O)c2c1c1c3cccc(O)c3[nH]c1c1c2c2cccc(O)c2n1[C@@H]1O[C@H](CO)[C@@H](O)[C@H](O)[C@H]1O [Example 1, 12,13-dihydro-1,11-dihydroxy-13-(β-D-glucopyranosyl)-5H-indolo[2,3-a]pyrrolo[3,4-c]carbazole-5,7(6H)-dione]	1.7 µg/mL (≈ 3.27 µM)	0.28 µg/mL (≈ 0.539 µM)	1.65 µg/mL (≈ 3.18 µM)
